Measurements as given in patent publication US10160747B2, “Compounds and methods for kinase modulation, and indications therefor” (Plexxikon Inc., priority 2016, dated 2018).
pIC50: −log10 of the molar value.

Legend:
Type in all cases: biochemical
c-KIT = molecular target: T1, c-KIT (Homo sapiens, UniProt P10721); test: c-KIT recombinant enzyme kinase assay (AlphaScreen); settings: 100 ATP, 8 pt
T1 construct: purchased Millipore 14-559K
In short: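 Kinase activity of recombinant FLT3-ITD, FLT3-D835Y and c-KIT was followed via phosphotyrosine formation on a 30 nM biotin-peptide substrate, captured on streptavidin donor and anti-phosphotyrosine acceptor AlphaScreen beads. ATP was set at 10 μM for FLT3 and 100 μM for c-KIT.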

FLT3-D835Y = molecular target: T2, FLT3-D835Y (Homo sapiens, UniProt P36888, D835Y); test: FLT3-D835Y recombinant enzyme kinase assay (AlphaScreen); settings: 8 pt, GMean
T2 construct: purchased Invitrogen PV3967
T2 sequence (P36888 27-993 D835Y): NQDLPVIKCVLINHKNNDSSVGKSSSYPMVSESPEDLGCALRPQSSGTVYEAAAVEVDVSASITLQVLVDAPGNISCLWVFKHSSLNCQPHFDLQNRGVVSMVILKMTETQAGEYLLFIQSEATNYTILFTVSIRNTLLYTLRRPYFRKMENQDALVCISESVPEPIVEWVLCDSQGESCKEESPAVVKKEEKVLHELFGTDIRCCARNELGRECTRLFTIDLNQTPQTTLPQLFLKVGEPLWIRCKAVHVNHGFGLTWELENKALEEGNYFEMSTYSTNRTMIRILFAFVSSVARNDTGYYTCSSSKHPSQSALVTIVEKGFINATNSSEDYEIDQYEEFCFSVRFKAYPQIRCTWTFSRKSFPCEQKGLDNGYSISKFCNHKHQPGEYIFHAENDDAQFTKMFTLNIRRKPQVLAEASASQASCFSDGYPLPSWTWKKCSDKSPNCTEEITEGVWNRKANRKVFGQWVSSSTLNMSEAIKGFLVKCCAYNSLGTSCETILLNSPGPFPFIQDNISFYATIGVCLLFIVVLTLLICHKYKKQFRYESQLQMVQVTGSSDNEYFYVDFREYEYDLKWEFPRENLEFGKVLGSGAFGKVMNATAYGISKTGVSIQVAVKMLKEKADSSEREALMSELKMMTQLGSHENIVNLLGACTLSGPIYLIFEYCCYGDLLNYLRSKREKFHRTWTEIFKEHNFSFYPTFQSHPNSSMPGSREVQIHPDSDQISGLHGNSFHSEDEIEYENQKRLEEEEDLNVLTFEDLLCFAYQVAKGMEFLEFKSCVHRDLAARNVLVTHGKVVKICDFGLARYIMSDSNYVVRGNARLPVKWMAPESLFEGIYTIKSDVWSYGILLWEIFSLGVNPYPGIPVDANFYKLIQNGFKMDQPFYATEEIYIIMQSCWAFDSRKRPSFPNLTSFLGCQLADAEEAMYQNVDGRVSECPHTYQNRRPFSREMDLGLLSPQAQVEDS
Experimental: (§1) In order to determine the effect of compounds on FLT3 catalytic activity, kinase assays using recombinant enzymes and AlphaScreen® technology have been established. The catalytic activity of c-kit activity was also measured to determine selectivity of the compounds. When the kinases are catalytically active, they phosphorylate a biotinylated peptide substrate on tyrosine residues. Using AlphaScreen® technology, the ability of the compounds to affect the catalytic activity of the kinases can be measured quantitatively. The peptide substrate is immobilized by the AlphaScreen® Streptavidin Donor beads and, upon phosphorylation by a tyrosine kinase, can bind to AlphaScreen® Anti-Phosphotyrosine (PY20) Acceptor beads. Upon excitation of these beads with laser light at 680 nm, singlet oxygen is produced. This singlet oxygen is rapidly quenched, unless the AlphaScreen® Anti-Phosphotyrosine (PY20) Acceptor beads are in close proximity, in which case a proximity signal can be measured at 580 nm. In the presence of catalytic activity, there is a very strong proximity signal. Selective kinase inhibitors affect a decrease in this proximity signal through a decrease in tyrosine phosphorylation of the peptide substrate.
(§2) The assay was performed as summarized below.
(§3) Poly (Glu4-Tyr) Peptide, biotin conjugate [Biotin-GG(EEEEY)10EE] (SEQ ID NO: 4)
(§4) Final concentration=30 nM
(§5) Adenosine Triphosphate (ATP)
(§6) Final concentration for IC50 determination=10 μM (FLT3-D835Y or FLT3-ITD) or 100 μM (c-KIT)
(§7) AlphaScreen® Phosphotyrosine (PY20) Assay Kit
(§8) Final concentration=10 μg/mL
(§9) Dilute compounds in DMSO to 20× final concentration.
(§10) Add 1 μL of compound to each well of 384 well reaction plate (Perkin Elmer #6005359).
(§11) Mix enzyme and Poly (Glu4-Tyr) Peptide substrate at 1.33× final concentration in assay buffer.
(§12) Mix ATP at 5× final concentration in assay buffer.
(§13) Add 15 μL enzyme/substrate mixture to the reaction plate.
(§14) Add 4 μL of ATP to the reaction plate.
(§15) Mix Streptavidin Donor beads at 6× final concentration in Stop/Detection buffer.
(§16) Add 5 μL Streptavidin Donor beads to the reaction plate. Centrifuge 1 minute, shake to mix, and incubate at room temperature for 20 minutes.
(§17) Mix Anti-Phosphotyrosine (PY20) Acceptor beads at 6× final concentration in Stop/Detection buffer.
(§18) Add 5 μL Anti-Phosphotyrosine (PY20) beads to the reaction plate.
(§19) Centrifuge 1 minute, shake to mix, and incubate at room temperature for 60 minutes.
(§20) Read plate on Wallac EnVision™ 2103 Multilabel Reader.

FLT3-ITD = molecular target: T3, FLT3-ITD (Homo sapiens, UniProt P36888); test: FLT3-ITD recombinant enzyme kinase assay (AlphaScreen); settings: 8 pt; read-out: FLT3_ITD 8 pt: IC50
T3 sequence (P36888 1-993): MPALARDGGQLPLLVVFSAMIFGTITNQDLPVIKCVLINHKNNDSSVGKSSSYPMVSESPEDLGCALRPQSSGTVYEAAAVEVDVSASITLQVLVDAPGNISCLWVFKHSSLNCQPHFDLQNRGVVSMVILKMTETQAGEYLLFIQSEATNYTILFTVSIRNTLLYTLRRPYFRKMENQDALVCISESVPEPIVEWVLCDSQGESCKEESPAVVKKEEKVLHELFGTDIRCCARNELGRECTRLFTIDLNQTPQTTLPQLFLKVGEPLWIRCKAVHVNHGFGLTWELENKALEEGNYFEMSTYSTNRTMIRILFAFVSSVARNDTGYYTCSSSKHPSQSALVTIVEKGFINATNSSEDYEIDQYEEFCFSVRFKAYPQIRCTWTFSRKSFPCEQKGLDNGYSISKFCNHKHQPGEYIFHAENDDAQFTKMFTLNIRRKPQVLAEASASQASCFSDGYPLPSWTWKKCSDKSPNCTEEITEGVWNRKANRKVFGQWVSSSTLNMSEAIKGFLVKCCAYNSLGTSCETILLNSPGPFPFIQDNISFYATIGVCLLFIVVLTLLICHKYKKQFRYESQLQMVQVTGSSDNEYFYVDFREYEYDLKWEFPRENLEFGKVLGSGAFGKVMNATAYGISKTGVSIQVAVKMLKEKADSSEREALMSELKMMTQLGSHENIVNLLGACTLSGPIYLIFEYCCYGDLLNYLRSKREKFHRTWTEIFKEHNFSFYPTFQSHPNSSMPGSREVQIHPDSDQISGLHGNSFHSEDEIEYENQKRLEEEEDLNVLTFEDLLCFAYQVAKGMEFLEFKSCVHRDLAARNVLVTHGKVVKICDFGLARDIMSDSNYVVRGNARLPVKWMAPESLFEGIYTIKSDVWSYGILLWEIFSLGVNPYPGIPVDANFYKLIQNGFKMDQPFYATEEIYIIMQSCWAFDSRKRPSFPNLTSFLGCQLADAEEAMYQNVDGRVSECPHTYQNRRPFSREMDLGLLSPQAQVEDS
Experimental: as §1, §2, §3, §4, §5, §6, §7, §8, §9, §10, §11, §12, §13, §14, §15, §16, §17, §18, §19, §20

T1 sequence (P10721 26-976): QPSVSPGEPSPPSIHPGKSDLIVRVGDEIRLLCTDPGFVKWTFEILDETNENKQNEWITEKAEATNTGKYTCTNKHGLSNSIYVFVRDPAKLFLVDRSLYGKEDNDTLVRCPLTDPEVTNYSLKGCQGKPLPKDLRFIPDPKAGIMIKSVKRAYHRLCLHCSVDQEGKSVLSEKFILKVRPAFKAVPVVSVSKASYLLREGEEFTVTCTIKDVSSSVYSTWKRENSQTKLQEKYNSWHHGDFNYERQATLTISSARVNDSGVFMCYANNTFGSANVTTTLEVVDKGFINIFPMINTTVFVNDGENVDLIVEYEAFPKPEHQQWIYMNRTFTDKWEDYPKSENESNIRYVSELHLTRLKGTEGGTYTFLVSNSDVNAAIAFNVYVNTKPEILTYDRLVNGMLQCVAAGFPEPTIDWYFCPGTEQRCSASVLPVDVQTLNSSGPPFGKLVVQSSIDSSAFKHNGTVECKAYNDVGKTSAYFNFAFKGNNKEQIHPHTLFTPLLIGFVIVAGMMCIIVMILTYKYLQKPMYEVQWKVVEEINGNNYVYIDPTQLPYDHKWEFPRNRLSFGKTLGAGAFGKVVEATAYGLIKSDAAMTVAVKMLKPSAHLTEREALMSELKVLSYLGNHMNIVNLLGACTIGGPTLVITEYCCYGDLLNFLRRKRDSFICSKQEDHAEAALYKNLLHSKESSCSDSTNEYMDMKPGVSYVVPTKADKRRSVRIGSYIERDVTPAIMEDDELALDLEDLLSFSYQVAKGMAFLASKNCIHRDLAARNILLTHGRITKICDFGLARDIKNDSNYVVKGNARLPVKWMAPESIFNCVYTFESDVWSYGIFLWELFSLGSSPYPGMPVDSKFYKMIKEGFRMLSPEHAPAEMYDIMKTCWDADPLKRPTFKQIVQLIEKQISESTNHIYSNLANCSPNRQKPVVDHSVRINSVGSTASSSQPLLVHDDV

SMILES	pIC50 (c-KIT)	pIC50 (FLT3-D835Y)	pIC50 (FLT3-ITD)
Cn1cc(Nc2ncc(-c3ccc(CC(=O)Nc4ccnc(C5CC5)c4)c(F)c3)cn2)cn1 [Compound P-0098, N-(2-cyclopropyl-4-pyridyl)-2-[2-fluoro-4-[2-[(1-methylpyrazol-4-yl)amino]pyrimidin-5-yl]phenyl]acetamide]	5.00 to 10.00	5.00 to 10.00	5.00 to 10.00
Cc1ncc(NC(=O)Cc2ccc(-c3cnc(Nc4cn(C)cn4)nc3)cc2F)cc1C(F)(F)F [Compound P-0099, 2-[2-fluoro-4-[2-[(1-methylimidazol-4-yl)amino]pyrimidin-5-yl]phenyl]-N-[6-methyl-5-(trifluoromethyl)-3-pyridyl]acetamide]	5.00 to 10.00	5.00 to 10.00	5.00 to 10.00
Cn1cnc(Nc2ncc(-c3ccc(CC(=O)Nc4cnc(Cl)c(C(F)(F)F)c4)c(F)c3)cn2)c1 [Compound P-0100, N-[6-chloro-5-(trifluoromethyl)-3-pyridyl]-2-[2-fluoro-4-[2-[(1-methylimidazol-4-yl)amino]pyrimidin-5-yl]phenyl]acetamide]	5.00 to 10.00	5.00 to 10.00	5.00 to 10.00
COc1ncc(NC(=O)Cc2ccc(-c3cnc(Nc4cn(C)cn4)nc3)cc2F)cc1C(F)(F)F [Compound P-0101, 2-[2-fluoro-4-[2-[(1-methylimidazol-4-yl)amino]pyrimidin-5-yl]phenyl]-N-[6-methoxy-5-(trifluoromethyl)-3-pyridyl]acetamide]	5.00 to 10.00	5.00 to 10.00	5.00 to 10.00
Cn1cnc(Nc2ncc(-c3ccc(CC(=O)Nc4cc(C(C)(F)F)ccn4)c(F)c3)cn2)c1 [Compound P-0102, N-[4-(1,1-difluoroethyl)-2-pyridyl]-2-[2-fluoro-4-[2-[(1-methylimidazol-4-yl)amino]pyrimidin-5-yl]phenyl]acetamide]	5.00 to 10.00	5.00 to 10.00	5.00 to 10.00
Cn1cnc(Nc2ncc(-c3ccc(CC(=O)Nc4cncc(C(C)(F)F)c4)c(F)c3)cn2)c1 [Compound P-0103, N-[5-(1,1-difluoroethyl)-3-pyridyl]-2-[2-fluoro-4-[2-[(1-methylimidazol-4-yl)amino]pyrimidin-5-yl]phenyl]acetamide]	5.00 to 10.00	5.00 to 10.00	5.00 to 10.00
Cn1cc(Nc2ncc(-c3ccc(CC(=O)Nc4cnc(F)c(C(C)(F)F)c4)cc3)cn2)cn1 [Compound P-0104, N-[5-(1,1-difluoroethyl)-6-fluoro-3-pyridyl]-2-[4-[2-[(1-methylpyrazol-4-yl)amino]pyrimidin-5-yl]phenyl]acetamide]	5.00 to 10.00	5.00 to 10.00	5.00 to 10.00
Cn1cc(Nc2ncc(-c3ccc(CC(=O)Nc4cnc(F)c(C(C)(F)F)c4)c(F)c3)cn2)cn1 [Compound P-0105, N-[5-(1,1-difluoroethyl)-6-fluoro-3-pyridyl]-2-[2-fluoro-4-[2-[(1-methylpyrazol-4-yl)amino]pyrimidin-5-yl]phenyl]acetamide]	5.00 to 10.00	5.00 to 10.00	5.00 to 10.00
Cn1cc(Nc2ncc(-c3ccc(CC(=O)Nc4ccc(C(F)(F)F)cn4)c(F)c3)cn2)cn1 [Compound P-0106, 2-[2-fluoro-4-[2-[(1-methylpyrazol-4-yl)amino]pyrimidin-5-yl]phenyl]-N-[5-(trifluoromethyl)-2-pyridyl]acetamide]	5.00 to 10.00	5.00 to 10.00	5.00 to 10.00
Cn1cc(Nc2ncc(-c3ccc(CC(=O)Nc4cc(Cl)c(C5CC5)cn4)c(F)c3)cn2)cn1 [Compound P-0107, N-(4-chloro-5-cyclopropyl-2-pyridyl)-2-[2-fluoro-4-[2-[(1-methylpyrazol-4-yl)amino]pyrimidin-5-yl]phenyl]acetamide]	5.00 to 10.00	5.00 to 10.00	5.00 to 10.00

Results, then the compound that gave them:

pIC50 (c-KIT)	pIC50 (FLT3-D835Y)	pIC50 (FLT3-ITD)	SMILES
5.00 to 10.00	5.00 to 10.00	5.00 to 10.00	CC(C)c1cc(NC(=O)Cc2ccc(-c3cnc(Nc4cnn(C)c4)nc3)cc2F)ccn1 [Compound P-0094, 2-[2-fluoro-4-[2-[(1-methylpyrazol-4-yl)amino]pyrimidin-5-yl]phenyl]-N-(2-isopropyl-4-pyridyl)acetamide]
5.00 to 10.00	5.00 to 10.00	5.00 to 10.00	Cn1cc(Nc2ncc(-c3ccc(CC(=O)Nc4ccc(C(F)(F)F)nc4)cc3)cn2)cn1 [Compound P-0095, 2-[4-[2-[(1-methylpyrazol-4-yl)amino]pyrimidin-5-yl]phenyl]-N-[6-(trifluoromethyl)-3-pyridyl]acetamide]
5.00 to 10.00	5.00 to 10.00	5.00 to 10.00	Cn1cnc(Nc2ncc(-c3ccc(CC(=O)Nc4cc(C(F)(F)F)ccn4)c(F)c3)cn2)c1 [Compound P-0096, 2-[2-fluoro-4-[2-[(1-methylimidazol-4-yl)amino]pyrimidin-5-yl]phenyl]-N-[4-(trifluoromethyl)-2-pyridyl]acetamide]
5.00 to 10.00	5.00 to 10.00	5.00 to 10.00	Cn1cc(Nc2ncc(-c3ccc(CC(=O)Nc4ccnc(C5CC5)c4)cc3)cn2)cn1 [Compound P-0097, N-(2-cyclopropyl-4-pyridyl)-2-[4-[2-[(1-methylpyrazol-4-yl)amino]pyrimidin-5-yl]phenyl]acetamide]
